From US20240270762A1, “PENICILLIN-BINDING PROTEIN INHIBITORS” (priority 2021, published 2024)
pIC50: −log10 of the molar value. Converted amounts (≈) assume the structure as drawn.

Legend:
[1] = target: T1, PBP1a from Acinetobacter baumannii (ATCC 19606) (Acinetobacter baumannii, UniProt A0ABX6CK30); assay: Bocillin-FL fluorescence polarization competition binding, A. baumannii PBP1a; conditions: fluorescence polarization competition binding assay using Bocillin-FL; read-out: A. baumannii PBP1a Potency
T1 sequence (A0ABX6CK30 1-851): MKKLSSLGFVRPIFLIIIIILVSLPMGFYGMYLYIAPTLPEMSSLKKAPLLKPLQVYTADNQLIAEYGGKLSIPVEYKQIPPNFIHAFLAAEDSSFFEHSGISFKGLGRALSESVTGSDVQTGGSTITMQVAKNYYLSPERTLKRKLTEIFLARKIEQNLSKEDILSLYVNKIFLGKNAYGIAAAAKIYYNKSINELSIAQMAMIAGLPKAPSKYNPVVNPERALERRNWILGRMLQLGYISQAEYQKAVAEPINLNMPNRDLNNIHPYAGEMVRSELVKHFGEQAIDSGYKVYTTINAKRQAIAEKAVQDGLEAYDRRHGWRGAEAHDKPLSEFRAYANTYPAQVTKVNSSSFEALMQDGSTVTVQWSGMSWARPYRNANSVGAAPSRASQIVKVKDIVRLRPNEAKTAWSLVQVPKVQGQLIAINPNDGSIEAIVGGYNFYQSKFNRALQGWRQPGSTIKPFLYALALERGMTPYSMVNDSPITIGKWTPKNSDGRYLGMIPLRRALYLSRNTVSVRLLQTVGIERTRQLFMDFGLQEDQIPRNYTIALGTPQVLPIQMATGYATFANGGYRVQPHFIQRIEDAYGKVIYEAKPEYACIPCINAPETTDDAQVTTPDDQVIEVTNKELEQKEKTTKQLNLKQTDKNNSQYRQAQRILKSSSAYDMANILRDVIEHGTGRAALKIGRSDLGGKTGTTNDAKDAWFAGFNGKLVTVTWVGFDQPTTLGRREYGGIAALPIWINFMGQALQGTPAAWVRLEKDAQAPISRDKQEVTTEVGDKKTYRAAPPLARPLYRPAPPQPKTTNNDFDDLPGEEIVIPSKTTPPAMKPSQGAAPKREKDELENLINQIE
Outline: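 Purified PBP was preincubated with inhibitor (E. coli PBP3 1.5 μM, 30 min; P. aeruginosa PBP3 0.75 μM, A. baumannii PBP3 0.2 μM and PBP1a 1 μM, 15 min), then Bocillin-FL (0.1 μM; 0.05 μM for PBP1a) added and FP read up to 60 min. EC50 = 50% loss of bound probe.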

N. gonorrhoeae WHO K = assay: Liquid broth MIC in Fastidious broth; conditions: Neisseria gonorrhoeae, read-out: Minimum Inhibitory Concentration, WHO K
N. gonorrhoeae WHO Z = assay: Liquid broth MIC in Fastidious broth; conditions: Neisseria gonorrhoeae, read-out: Minimum Inhibitory Concentration, WHO Z
Procedure: Additional antibacterial testing of the series was performed in 8 reference strains of N. gonorrhoeae (ATCC 49226, FA1090, MS 11, WHO G, WHO L, WHO M, WHO K, WHO X, WHO Z, WHO Q, CDC-0197). ATCC 49226, FA1090, MS11, WHO G, WHO L, and WHO M produce wild type or wild-type like PBP2. WHO K, WHO X, WHO Z, WHO Q, and CDC-0197 produce mosaic PBP2. Liquid broth-based assays were used for antibacterial testing of PBP inhibitors in Neisseria gonorrhoeae. Briefly, cryo-preserved bacterial cultures of clinical strains were streaked for isolation on Chocolate Agar (72 g/L (2×) GC Agar Base (BD #228950) and 2% (2×) Hemoglobin was autoclaved at 121° C. for 20 minutes to sterilize. Once cooled to ˜50° C. the 2×GC Agar Base and 2× Hemoglobin solutions are combined and 1% IsoVitaleX Enrichment (BD #211876) was added to the solution). Strains were incubated at 36° C. and 5% CO2 to allow growth of colonies, 24 hours before inoculum preparation. 2-fold serial dilutions of test compounds were conducted in a 96 well plate with a final volume of 75 μL per well at 2-fold the final desired concentration in Fastidious broth (Remel #R07664). For preparation of assay inoculum, a direct suspension was prepared by aseptically swabbing 10-15 colonies from agar plates into culture tubes containing 2 mL of fresh sterile saline. After the dilution plates were set up, direct suspensions were then diluted in a cuvette containing sterile saline and the optical density was measured at 600 nm. Inocula were diluted such that 75 μL of this culture in Fastidious broth results in a starting bacterial concentration of 5×10^5 CFU/mL when added to the dilution plates. The plates were incubated for ˜24 hours at 36° C. and 5% CO2.

N. gonorrhoeae WHO Q = assay: Liquid broth MIC in Fastidious broth; conditions: Neisseria gonorrhoeae, read-out: Minimum Inhibitory Concentration, WHO Q
[2] = tested on: N. gonorrhoeae ATCC 49226; assay: Liquid broth MIC in Fastidious broth; conditions: Neisseria gonorrhoeae, ATCC49226, read-out: Minimum Inhibitory Concentration, ATCC 49226
N. gonorrhoeae FA1090 = assay: Liquid broth MIC in Fastidious broth; conditions: Neisseria gonorrhoeae, FA1090, read-out: Minimum Inhibitory Concentration, FA 1090
N. gonorrhoeae MS11 = assay: Liquid broth MIC in Fastidious broth; conditions: Neisseria gonorrhoeae, MS11, read-out: Minimum Inhibitory Concentration, MS11
N. gonorrhoeae CDC-0197 = assay: Liquid broth MIC in Fastidious broth; conditions: Neisseria gonorrhoeae, CDC0197, read-out: Minimum Inhibitory Concentration, CDC-0197

| SMILES | pIC50 [1] | MIC (N. gonorrhoeae WHO K) | MIC (N. gonorrhoeae WHO Z) | MIC (N. gonorrhoeae WHO Q) | MIC [2] | MIC (N. gonorrhoeae FA1090) | MIC (N. gonorrhoeae MS11) | MIC (N. gonorrhoeae CDC-0197) |
| --- | --- | --- | --- | --- | --- | --- | --- | --- |
| O=C(NCCCN1CCN(C(=O)NC(C(=O)N[C@H]2Cc3ccc(F)c(C(=O)O)c3OB2O)c2cc(F)c(O)c(O)c2Cl)C1=O)c1ccc(O)cc1 (stereo partly drawn) [Example 280, (3R)-3-(2-(2-chloro-5-fluoro-3,4-dihydroxyphenyl)-2-(3-(3-(4-hydroxybenzamido)propyl)-2-oxoimidazolidine-1-carboxamido)acetamido)-7-fluoro-2-hydroxy-3,4-dihydro-2H-benzo[e][1,2]oxaborinine-8-carboxylic acid] | < 3.60 | > 64 µg/mL | 16 to 32 µg/mL (≈ 21.9 to 43.7 µM) | > 64 µg/mL | 16 to 32 µg/mL (≈ 21.9 to 43.7 µM) | 4 to 8 µg/mL (≈ 5.47 to 10.9 µM) | 16 to 32 µg/mL (≈ 21.9 to 43.7 µM) | > 64 µg/mL |
| O=C(NCCCN1CCN(C(=O)NC(C(=O)N[C@H]2Cc3ccc(F)c(C(=O)O)c3OB2O)c2cc(F)c(O)c(O)c2Cl)C1=O)c1cccnc1 (stereo partly drawn) [Example 281, (3R)-3-(2-(2-chloro-5-fluoro-3,4-dihydroxyphenyl)-2-(3-(3-(nicotinamido)propyl)-2-oxoimidazolidine-1-carboxamido)acetamido)-7-fluoro-2-hydroxy-3,4-dihydro-2H-benzo[e][1,2]oxaborinine-8-carboxylic acid] | < 3.60 | > 64 µg/mL | 16 to 32 µg/mL (≈ 22.3 to 44.6 µM) | > 64 µg/mL | > 64 µg/mL | 4 to 8 µg/mL (≈ 5.58 to 11.2 µM) | > 64 µg/mL | > 64 µg/mL |
| O=C(NCCCN1CCN(C(=O)N[C@H](C(=O)N[C@H]2Cc3ccc(F)c(C(=O)O)c3OB2O)c2cc(F)c(O)c(O)c2Cl)C1=O)Nc1ccc(O)cc1 [Example 283, (R)-3-((S)-2-(2-chloro-5-fluoro-3,4-dihydroxyphenyl)-2-(3-(3-(3-(4-hydroxyphenyl)ureido)propyl)-2-oxoimidazolidine-1-carboxamido)acetamido)-7-fluoro-2-hydroxy-3,4-dihydro-2H-benzo[e][1,2]oxaborinine-8-carboxylic acid] | < 3.60 | > 64 µg/mL | > 64 µg/mL | > 64 µg/mL | > 64 µg/mL | > 64 µg/mL | > 64 µg/mL | > 64 µg/mL |
| O=C(NCCCN1CCN(C(=O)N[C@@H](C(=O)N[C@H]2Cc3ccc(F)c(C(=O)O)c3OB2O)c2cc(F)c(O)c(O)c2Cl)C1=O)Nc1ccc(O)cc1 [Example 284, (R)-3-((R)-2-(2-chloro-5-fluoro-3,4-dihydroxyphenyl)-2-(3-(3-(3-(4-hydroxyphenyl)ureido)propyl)-2-oxoimidazolidine-1-carboxamido)acetamido)-7-fluoro-2-hydroxy-3,4-dihydro-2H-benzo[e][1,2]oxaborinine-8-carboxylic acid] | < 3.60 | 16 to 32 µg/mL (≈ 21.4 to 42.8 µM) | 4 to 8 µg/mL (≈ 5.36 to 10.7 µM) | 4 to 8 µg/mL (≈ 5.36 to 10.7 µM) | 4 to 8 µg/mL (≈ 5.36 to 10.7 µM) | 1 to 2 µg/mL (≈ 1.34 to 2.68 µM) | 4 to 8 µg/mL (≈ 5.36 to 10.7 µM) | 16 to 32 µg/mL (≈ 21.4 to 42.8 µM) |
| O=C(NCCCN1CCN(C(=O)NC(C(=O)N[C@H]2Cc3ccc(F)c(C(=O)O)c3OB2O)c2cc(F)c(O)c(O)c2Cl)C1=O)Nc1ccncc1 (stereo partly drawn) [Example 285, (3R)-3-(2-(2-chloro-5-fluoro-3,4-dihydroxyphenyl)-2-(2-oxo-3-(3-(3-(pyridin-4-yl)ureido)propyl)imidazolidine-1-carboxamido)acetamido)-7-fluoro-2-hydroxy-3,4-dihydro-2H-benzo[e][1,2]oxaborinine-8-carboxylic acid] | < 3.60 | > 64 µg/mL | > 64 µg/mL | > 64 µg/mL | > 64 µg/mL | 4 to 8 µg/mL (≈ 5.47 to 10.9 µM) | > 64 µg/mL | > 64 µg/mL |
| O=C(NCCS(=O)(=O)N1CCN(C(=O)N[C@H](C(=O)N[C@H]2Cc3ccc(F)c(C(=O)O)c3OB2O)c2cc(F)c(O)c(O)c2Cl)C1=O)c1ccc(O)cc1 [Example 286, (R)-3-((S)-2-(2-chloro-5-fluoro-3,4-dihydroxyphenyl)-2-(3-((2-(4-hydroxybenzamido)ethyl)sulfonyl)-2-oxoimidazolidine-1-carboxamido)acetamido)-7-fluoro-2-hydroxy-3,4-dihydro-2H-benzo[e][1,2]oxaborinine-8-carboxylic acid] | < 3.60 | > 64 µg/mL | > 64 µg/mL | > 64 µg/mL | > 64 µg/mL | > 64 µg/mL | > 64 µg/mL | > 64 µg/mL |
| O=C(NCCS(=O)(=O)N1CCN(C(=O)N[C@@H](C(=O)N[C@H]2Cc3ccc(F)c(C(=O)O)c3OB2O)c2cc(F)c(O)c(O)c2Cl)C1=O)c1ccc(O)cc1 [Example 287, (R)-3-((R)-2-(2-chloro-5-fluoro-3,4-dihydroxyphenyl)-2-(3-((2-(4-hydroxybenzamido)ethyl)sulfonyl)-2-oxoimidazolidine-1-carboxamido)acetamido)-7-fluoro-2-hydroxy-3,4-dihydro-2H-benzo[e][1,2]oxaborinine-8-carboxylic acid] | < 3.60 | 16 to 32 µg/mL (≈ 20.5 to 40.9 µM) | 4 to 8 µg/mL (≈ 5.12 to 10.2 µM) | 4 to 8 µg/mL (≈ 5.12 to 10.2 µM) | 4 to 8 µg/mL (≈ 5.12 to 10.2 µM) | 1 to 2 µg/mL (≈ 1.28 to 2.56 µM) | 4 to 8 µg/mL (≈ 5.12 to 10.2 µM) | 16 to 32 µg/mL (≈ 20.5 to 40.9 µM) |
| O=C(NCCS(=O)(=O)N1CCN(C(=O)NC(C(=O)N[C@H]2Cc3ccc(F)c(C(=O)O)c3OB2O)c2cc(F)c(O)c(O)c2Cl)C1=O)c1ccncc1 (stereo partly drawn) [Example 288, (3R)-3-(2-(2-chloro-5-fluoro-3,4-dihydroxyphenyl)-2-(3-((2-(isonicotinamido)ethyl)sulfonyl)-2-oxoimidazolidine-1-carboxamido)acetamido)-7-fluoro-2-hydroxy-3,4-dihydro-2H-benzo[e][1,2]oxaborinine-8-carboxylic acid] | < 3.60 | 16 to 32 µg/mL (≈ 20.9 to 41.7 µM) | 4 to 8 µg/mL (≈ 5.22 to 10.4 µM) | 16 to 32 µg/mL (≈ 20.9 to 41.7 µM) | 16 to 32 µg/mL (≈ 20.9 to 41.7 µM) | 1 to 2 µg/mL (≈ 1.3 to 2.61 µM) | 4 to 8 µg/mL (≈ 5.22 to 10.4 µM) | 16 to 32 µg/mL (≈ 20.9 to 41.7 µM) |
| O=C(NCCS(=O)(=O)N1CCN(C(=O)NC(C(=O)N[C@H]2Cc3ccc(F)c(C(=O)O)c3OB2O)c2cc(F)c(O)c(O)c2Cl)C1=O)Nc1ccc(O)cc1 (stereo partly drawn) [Example 289, (3R)-3-(2-(2-chloro-5-fluoro-3,4-dihydroxyphenyl)-2-(3-((2-(3-(4-hydroxyphenyl)ureido)ethyl)sulfonyl)-2-oxoimidazolidine-1-carboxamido)acetamido)-7-fluoro-2-hydroxy-3,4-dihydro-2H-benzo[e][1,2]oxaborinine-8-carboxylic acid] | < 3.60 | 16 to 32 µg/mL (≈ 20.1 to 40.2 µM) | 4 to 8 µg/mL (≈ 5.02 to 10 µM) | 4 to 8 µg/mL (≈ 5.02 to 10 µM) | 16 to 32 µg/mL (≈ 20.1 to 40.2 µM) | 1 to 2 µg/mL (≈ 1.25 to 2.51 µM) | 4 to 8 µg/mL (≈ 5.02 to 10 µM) | 16 to 32 µg/mL (≈ 20.1 to 40.2 µM) |
| O=C(NCCS(=O)(=O)N1CCN(C(=O)N[C@@H](C(=O)N[C@H]2Cc3ccc(F)c(C(=O)O)c3OB2O)c2cc(F)c(O)c(O)c2Cl)C1=O)Nc1ccncc1 [Example 290, (R)-3-((R)-2-(2-chloro-5-fluoro-3,4-dihydroxyphenyl)-2-(2-oxo-3-((2-(3-(pyridin-4-yl)ureido)ethyl)sulfonyl)imidazolidine-1-carboxamido)acetamido)-7-fluoro-2-hydroxy-3,4-dihydro-2H-benzo[e][1,2]oxaborinine-8-carboxylic acid] | < 3.60 | > 64 µg/mL | 4 to 8 µg/mL (≈ 5.12 to 10.2 µM) | 16 to 32 µg/mL (≈ 20.5 to 40.9 µM) | 16 to 32 µg/mL (≈ 20.5 to 40.9 µM) | 1 to 2 µg/mL (≈ 1.28 to 2.56 µM) | 16 to 32 µg/mL (≈ 20.5 to 40.9 µM) | 16 to 32 µg/mL (≈ 20.5 to 40.9 µM) |
| O=C(NCCCS(=O)(=O)N1CCN(C(=O)NC(C(=O)N[C@H]2Cc3ccc(F)c(C(=O)O)c3OB2O)c2cc(F)c(O)c(O)c2Cl)C1=O)Nc1ccncc1 (stereo partly drawn) [Example 291, (3R)-3-(2-(2-chloro-5-fluoro-3,4-dihydroxyphenyl)-2-(2-oxo-3-((3-(3-(pyridin-4-yl)ureido)propyl)sulfonyl)imidazolidine-1-carboxamido)acetamido)-7-fluoro-2-hydroxy-3,4-dihydro-2H-benzo[e][1,2]oxaborinine-8-carboxylic acid] | < 3.60 | > 64 µg/mL | 4 to 8 µg/mL (≈ 5.03 to 10.1 µM) | 16 to 32 µg/mL (≈ 20.1 to 40.2 µM) | 16 to 32 µg/mL (≈ 20.1 to 40.2 µM) | 4 to 8 µg/mL (≈ 5.03 to 10.1 µM) | 16 to 32 µg/mL (≈ 20.1 to 40.2 µM) | 16 to 32 µg/mL (≈ 20.1 to 40.2 µM) |
